system: LOLRI; experiment: A. Herbicidal pre-emergence action on harmful plants (Tables A); assay type: in vivo, Lolium rigidum; settings: application rate 320 g/ha; visual grading after ca. 3 weeks vs untreated controls; 100% = plants have died off, 0% = as control plants
Procedure, shortened: (§1)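 Greenhouse pre-emergence test: compound applied to the soil surface at 1280 g/ha or below, and herbicidal effect rated visually at ca. 3 weeks on a 0–100% scale against untreated plants.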

Row | SMILES | pre-emergence activity against LOLRI [%]
1 | COCc1c(C(=O)N2CCCC2Cc2ccccc2F)cnn1C (single isomer, unassigned) [Example I-157] | 90

same assay, conditions: application rate 1280 g/ha; visual grading after ca. 3 weeks vs untreated controls; 100% = plants have died off, 0% = as control plants

Row | SMILES | pre-emergence activity against LOLRI [%]
2 | Cn1cc(C(=O)N2CCCC2Cc2ccccc2F)c(COc2ccccc2)n1 (racemic) [Example I-006] | 90
3 | COCc1c(C(=O)N2CCCC2Cc2ccccc2F)cnn1C (single isomer, unassigned) [Example I-157] | 90

system: SETVI; experiment: as above; assay type: in vivo, Setaria viridis; settings: application rate 320 g/ha; visual grading after ca. 3 weeks vs untreated controls; 100% = plants have died off, 0% = as control plants
Procedure, shortened: as §1

Row | SMILES | pre-emergence activity against SETVI [%]
4 | COCc1c(C(=O)N2CCCC2Cc2ccccc2F)cnn1C (single isomer, unassigned) [Example I-157] | 90

same assay, conditions: application rate 1280 g/ha; visual grading after ca. 3 weeks vs untreated controls; 100% = plants have died off, 0% = as control plants

Row | SMILES | pre-emergence activity against SETVI [%]
5 | Cn1cc(C(=O)N2CCCC2Cc2ccc(F)cc2F)c(COc2ccccc2)n1 (racemic) [Example I-008] | 90
6 | COCc1c(C(=O)N2CCCC2Cc2ccccc2F)cnn1C (single isomer, unassigned) [Example I-157] | 90

system: ALOMY; experiment: as above; assay type: in vivo, Alopecurus myosuroides; settings: application rate 320 g/ha; Table A9b
Procedure, shortened: as §1

Row | SMILES | pre-emergence activity against ALOMY [%]
7 | Cn1cc(C(=O)N2CCCC2Cc2ccccc2F)c(COc2ccccc2)n1 (racemic) [Example I-006] | 90
8 | Cn1cc(C(=O)N2CCCC2Cc2ccc(F)cc2F)c(COc2ccccc2)n1 (racemic) [Example I-008] | 100
9 | COCc1c(C(=O)N2CCCC2Cc2ccccc2F)cnn1C (single isomer, unassigned) [Example I-157] | 100

same assay, conditions: application rate 1280 g/ha; Table A9a

Row | SMILES | pre-emergence activity against ALOMY [%]
10 | Cn1cc(C(=O)N2CCCC2Cc2ccccc2F)c(COc2ccccc2)n1 (racemic) [Example I-006] | 100
11 | Cn1cc(C(=O)N2CCCC2Cc2ccc(F)cc2F)c(COc2ccccc2)n1 (racemic) [Example I-008] | 100
12 | COCc1c(C(=O)N2CCCC2Cc2ccccc2F)cnn1C (single isomer, unassigned) [Example I-157] | 100

system: ECHCG; experiment: B. Herbicidal post-emergence action on harmful plants (Tables B); assay type: in vivo, Echinochloa crus-galli; settings: application rate 1280 g/ha; Table B2a
Procedure, shortened: (§2)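 Activity was scored visually as % damage (100% = dead, 0% = like untreated) about 3 weeks after treatment. Plants at the one-leaf stage, 2-3 weeks old, were sprayed with WP/EC formulations plus 0.5% additive (600 L/ha water, up to 1280 g/ha). Plants were grown in sandy loam in a greenhouse.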

Row | SMILES | post-emergence activity against ECHCG [%]
13 | Cn1cc(C(=O)N2CCCC2Cc2ccccc2F)c(COc2ccccc2)n1 (racemic) [Example I-006] | 100

system: POAAN; experiment: as above; assay type: in vivo, Poa annua; settings: application rate 320 g/ha; Table B7b
Procedure, shortened: as §2

Row | SMILES | post-emergence activity against POAAN [%]
14 | COCc1c(C(=O)N2CCCC2Cc2ccccc2F)cnn1C (single isomer, unassigned) [Example I-157] | 100

same assay, conditions: application rate 1280 g/ha; Table B7a

Row | SMILES | post-emergence activity against POAAN [%]
15 | Cn1cc(C(=O)N2CCCC2Cc2ccccc2F)c(COc2ccccc2)n1 (racemic) [Example I-006] | 90
16 | Cn1cc(C(=O)N2CCCC2Cc2ccc(F)cc2F)c(COc2ccccc2)n1 (racemic) [Example I-008] | 90
17 | COCc1c(C(=O)N2CCCC2Cc2ccccc2F)cnn1C (single isomer, unassigned) [Example I-157] | 100

system: ALOMY; experiment: C. Herbicidal pre-emergence action, weed and crop plants (Tables C); assay type: in vivo, Alopecurus myosuroides; settings: application rate 320 g/ha; Table C2a
Description: Seeds of mono- and dicotyledonous weed plants and crop plants were sown, in plastic or organic planting pots, in sandy loam and covered with soil. The compounds according to the invention, formulated in the form of wettable powders (WP) or as emulsifiable concentrates (EC), were applied to the surface of the covering soil as aqueous suspension or emulsion, with the addition of 0.5% of an additive, at an application rate of 6001 of water/ha (converted). Following treatment, the pots were placed in a greenhouse and kept under optimum growth conditions for the test plants. The visual grading of the damage to the test plants was carried out after ca. 3 weeks in comparison to untreated controls (herbicidal effect in percent (%): 100% effect = plants have died off, 0% effect = as control plants). Tables C1 to C12 below show the effects of selected compounds of the general formula (I) according to table 1 on various harmful plants and an application rate corresponding to 320 g/ha or below obtained by the experimental procedure mentioned above. Table C1: pre-emergence activity at 320g/ha against KCHSC in %

Row | SMILES | pre-emergence activity against ALOMY [%]
18 | Cn1cc(C(=O)N2CCCC2Cc2ccccc2F)c(COc2ccccc2)n1 (racemic) [Example I-006] | 90
19 | Cn1cc(C(=O)N2CCCC2Cc2ccc(F)cc2F)c(COc2ccccc2)n1 (racemic) [Example I-008] | 100
20 | COCc1c(C(=O)N2CCCC2Cc2ccccc2F)cnn1C (single isomer, unassigned) [Example I-157] | 90

system: VIOTR; experiment: as above; assay type: in vivo, Viola tricolor; settings: application rate 320 g/ha; Table C12a
Procedure, shortened: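 Seeds were sown in sandy loam and covered with soil. WP or EC formulations were sprayed onto the soil surface as aqueous suspension or emulsion with 0.5% additive, at rates of 320 g/ha or below. Plants were kept in a greenhouse, and damage was scored visually after about 3 weeks as % effect versus untreated controls (100% = dead, 0% = like control).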

Row | SMILES | pre-emergence activity against VIOTR [%]
21 | Cn1cc(C(=O)N2CCCC2Cc2ccc(F)cc2F)c(COc2ccccc2)n1 (racemic) [Example I-008] | 90
22 | COCc1c(C(=O)N2CCCC2Cc2ccccc2F)cnn1C (single isomer, unassigned) [Example I-157] | 90

system: ZEAMX; experiment: D. Pre-emergence effects on crop plants (Tables D); assay type: in vivo, Zea mays; settings: crop plant; application rate 80 g/ha; Table D1b
Procedure, shortened: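 Pre-emergence soil-surface treatment at 320 g/ha or lower, using wettable-powder or emulsifiable-concentrate formulations in water plus 0.5% additive, over freshly sown seeds in covered sandy loam. Damage was rated visually as percent versus untreated pots (100% = dead plants) after about 3 weeks of greenhouse growth.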

Row | SMILES | pre-emergence activity against ZEAMX [%]
23 | Cn1cc(C(=O)N2CCCC2Cc2ccccc2F)c(COc2ccccc2)n1 (racemic) [Example I-006] | 0
24 | Cn1cc(C(=O)N2CCCC2Cc2ccc(F)cc2F)c(COc2ccccc2)n1 (racemic) [Example I-008] | 10

same assay, conditions: crop plant; application rate 320 g/ha; Table D1a

Row | SMILES | pre-emergence activity against ZEAMX [%]
25 | Cn1cc(C(=O)N2CCCC2Cc2ccc(F)cc2F)c(COc2ccccc2)n1 (racemic) [Example I-008] | 20

system: TRZAS; experiment: D. Pre-emergence effects on crop plants (Tables D); assay type: in vivo, Triticum aestivum; settings: crop plant; application rate 80 g/ha; Table D2b
Description: Seeds of mono- and dicotyledonous weed plants and crop plants were sown, in plastic or organic planting pots, in sandy loam and covered with soil. The compounds according to the invention, formulated in the form of wettable powders (WP) or as emulsifiable concentrates (EC), were applied to the surface of the covering soil as aqueous suspension or emulsion, with the addition of 0.5% of an additive, at an application rate of 6001 of water/ha (converted).
Following treatment, the pots were placed in a greenhouse and kept under optimum growth conditions for the test plants. The visual grading of the damage to the test plants was carried out after ca. 3 weeks in comparison to untreated controls (herbicidal effect in percent (%): 100% effect = plants have died off, 0% effect = as control plants).
Tables D1 to D5 below show the effects of various compounds of the general formula (I) according to Table 1 on various crop plants and an application rate corresponding to 320 g/ha or below obtained by the experimental procedure mentioned above in Biological Examples, Section C. Table D1a: pre-emergence activity at 320g/ha against ZEAMX in %

Row | SMILES | pre-emergence activity against TRZAS [%]
26 | Cn1cc(C(=O)N2CCCC2Cc2ccccc2F)c(COc2ccccc2)n1 (racemic) [Example I-006] | 0
27 | Cn1cc(C(=O)N2CCCC2Cc2ccc(F)cc2F)c(COc2ccccc2)n1 (racemic) [Example I-008] | 10

same assay, conditions: crop plant; application rate 320 g/ha; Table D2a

Row | SMILES | pre-emergence activity against TRZAS [%]
28 | Cn1cc(C(=O)N2CCCC2Cc2ccccc2F)c(COc2ccccc2)n1 (racemic) [Example I-006] | 20

system: BRSNW; experiment: F. Post-emergence effects on crop plants (Tables F); assay type: in vivo, Brassica napus; settings: application rate 320 g/ha, crop plant
Procedure, shortened: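 Plants were grown in sandy loam in a greenhouse and sprayed post-emergence at the single-leaf stage, 2–3 weeks after sowing. Visual damage was scored after ca. 3 weeks against untreated controls (0% = as control, 100% = dead).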

Row | SMILES | post-emergence activity against BRSNW in % [%]
29 | Cn1cc(C(=O)N2CCCC2Cc2ccccc2F)c(COc2ccccc2)n1 (racemic) [Example I-006] | 10
30 | Cn1cc(C(=O)N2CCCC2Cc2ccc(F)cc2F)c(COc2ccccc2)n1 (racemic) [Example I-008] | 10
31 | COCc1c(C(=O)N2CCCC2Cc2ccccc2F)cnn1C (single isomer, unassigned) [Example I-157] | 0

Reference: patent EP4417602A1, “SUBSTITUTED PYRAZOLE CARBOXAMIDES, SALTS THEREOF AND THEIR USE AS HERBICIDALLY ACTIVE SUBSTANCES” (Bayer AG, priority 2023, dated 2024)
